Each compound was assayed against T1, IRAK4 (Homo sapiens, UniProt Q9NWZ3) (assay: IRAK4 MSD Degradation in OCI-LY10). Conditions: OCI-LY10 cells, Meso Scale Discovery, incubated 4 to 24 hours.
T1 construct: endogenous in cells; host or cells: OCI-LY10
T1 sequence (Q9NWZ3 1-460): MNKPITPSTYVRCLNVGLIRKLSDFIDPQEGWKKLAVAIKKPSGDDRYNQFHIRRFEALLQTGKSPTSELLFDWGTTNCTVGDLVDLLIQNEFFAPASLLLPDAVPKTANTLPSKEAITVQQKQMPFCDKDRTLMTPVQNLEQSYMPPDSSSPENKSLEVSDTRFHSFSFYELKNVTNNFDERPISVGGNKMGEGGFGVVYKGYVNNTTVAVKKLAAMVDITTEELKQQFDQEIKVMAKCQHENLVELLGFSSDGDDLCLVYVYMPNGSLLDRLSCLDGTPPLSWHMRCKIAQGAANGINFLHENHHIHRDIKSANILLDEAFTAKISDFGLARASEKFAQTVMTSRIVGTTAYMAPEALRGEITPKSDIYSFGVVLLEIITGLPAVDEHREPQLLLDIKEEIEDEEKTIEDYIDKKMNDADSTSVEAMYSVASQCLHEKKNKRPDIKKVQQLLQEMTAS
Type: cell-based
Method: Degradation of IRAK4 in OCI-LY10 was quantitatively measured using Meso Scale Discovery technology. OCI-LY10 cells were seeded in 96-well plates (Corning 3799) with a density of 300,000 cells per well in 100 μL fresh media. Compounds were then added to the assay plates with a final top concentration of 1 to 10 μM in a 1:3 dilution series with total of 8 doses. The assay plates were then incubated for 4 to 24 hours at 37° C. under 5% CO2. The assay plates were then centrifuged for 5 minutes and the cell pellets were treated with 100 μL/well RIPA lysis buffer (Boston BioProducts BP-115D) with proteinase inhibitors. To prepare MSD assay plates (Meso Scale Discovery Catalog number L15XA-3), the plates were coated with 2 μg/mL capture antibody (mouse Anti-IRAK4 antibody [2H9], ab119942) in PBS, at 40 μL/well. The plates were then incubated overnight at 4° C., washed 3 times with 150 μL/well TBST buffer (Cell Signaling Technology, Catalog number 9997S) and blocked with 150 μL/well blocking buffer (Meso Scale Discovery Catalog number R93BA-4). Cell lysates were then added to MSD assay plates and the plates were incubated at room temperature for 1 hour. The plates were then washed 3 times with 150 μL/well TBST buffer and […] primary detection antibody (rabbit Anti-IRAK4 antibody [Y279], from Abcam. Catalog number ab32511, 1 μg/mL). The assay plates were then incubated at room temperature for 1 hour, washed 3 times with 150 μL/well TBST buffer and 254/well secondary detection antibody, SULFO-TAG anti-rabbit antibody were added (anti rabbit antibody from Meso Scale Discovery, Catalog number R32AB-1, 1 μg/mL). The assay plates were then incubated at room temperature for 1 hour, washed 3 times with 150 μL/well TBST buffer, and 150 μL/well MSD reading buffer (Meso Scale Discovery catalog number R92TC-2) was added. The plates were then analyzed by a MSD reader (Meso Scale Discovery, Model Quick Plex SQ 120). The data was then analyzed by software Prism 7.0 from GraphPad and the dose-depended IRAK4 degradation were fit using a three-parameter logistic equation to calculate DC50.
The letter codes for IRAK4 DC50 include: A (<0.01 μM); B (0.01-0.05 μM); C (0.05-0.1 μM); D (0.1-0.2 μM); and E (>0.2 μM).

Row | SMILES | DC50
1 | Cn1c(=O)n(C2CCC(=O)NC2=O)c2ccc(Cl)c(C3CCN(C[C@H]4CC[C@H](n5cc6cc(NC(=O)c7cccc(C(F)(F)F)n7)ncc6n5)CC4)CC3)c21 (stereo partly drawn) [I-88] | 10 to 50 nM
2 | COc1cc2nn(CCN(C)C3CCN(c4cccc5c4n(C)c(=O)n5C4CCC(=O)NC4=O)CC3)cc2cc1NC(=O)c1cnn2cccnc12 (stereo not drawn) [I-21, N-[2-[2-[[1-[1-(2,6-dioxo-3-piperidyl)-3-methyl-2-oxo-benzimidazol-4-yl]-4-piperidyl]-methyl-amino]ethyl]-6-methoxy-indazol-5-yl]pyrazolo[1,5-a]pyrimidine-3-carboxamide] | 100 to 200 nM
3 | COc1cc2nn([C@H]3CC[C@H](CN4CCN(c5cccc6c(N7CCC(=O)NC7=O)cncc56)CC4)CC3)cc2cc1NC(=O)c1ccnc(C(F)(F)F)n1 [I-300] | 10 to 50 nM
4 | COc1cc2nn([C@H]3CC[C@H](CN4CCC(c5cccc6c5n(C)c(=O)n6C5CCC(=O)NC5=O)CC4)CC3)cc2cc1NC(=O)c1nc(C(F)(F)F)cs1 (stereo partly drawn) [I-175] | < 10 nM
5 | CC(C)(O)c1cc2nn([C@H]3CC[C@H](CN4CCC(c5cccc6c(N7CCC(=O)NC7=O)cncc56)CC4)CC3)cc2cc1NC(=O)c1cccc(C(F)(F)F)n1 [I-78, N-[2-[4-[[4-[4-(2,4-dioxohexahydropyrimidin-1-yl)-8-isoquinolyl]-1-piperidyl]methyl]cyclohexyl]-6-(1-hydroxy-1-methyl-ethyl)indazol-5-yl]-6-(trifluoromethyl)pyridine-2-carboxamide] | < 10 nM
6 | COc1ccc2c(c1N1CCN(C[C@H]3CC[C@H](NC(=O)c4cnc(-n5ccc6cc(C#N)cnc65)cc4NC(C)C)CC3)CC1)n(C)c(=O)n2C1CCC(=O)NC1=O (stereo partly drawn) [I-391] | 10 to 50 nM
7 | COc1cc2nc([C@H]3CC[C@H](CN4CCC(c5cccc6c5n(C)c(=O)n6C5CCC(=O)NC5=O)CC4)CC3)sc2cc1NC(=O)c1cncc(Cl)c1 (stereo partly drawn) [I-182] | < 10 nM
8 | COc1cc2nn([C@H]3CC[C@H](CN4CCC(c5c(OC)ccc6c5n(C)c(=O)n6C5CCC(=O)NC5=O)CC4)CC3)cc2cc1NC(=O)c1cncc(C#N)c1 (stereo partly drawn) [I-195] | 10 to 50 nM
9 | CN(C)c1cc2nn([C@H]3CC[C@H](CN4CCC(c5cccc6c5n(C)c(=O)n6C5CCC(=O)NC5=O)CC4)CC3)cc2cc1NC(=O)c1cccc(C(F)(F)F)n1 (stereo partly drawn) [I-107] | < 10 nM
10 | CC(C)(O)c1cc2nc([C@H]3CC[C@H](C(=O)N4CC5(CC(CCNc6cccc7c6C(=O)N(C6CCC(=O)NC6=O)C7=O)C5)C4)CC3)sc2cc1NC(=O)c1cncc(C#N)c1 (stereo partly drawn) [I-448] | > 200 nM
11 | Cc1ccc2c(c1C1CCN(C[C@H]3C[C@H](n4cc5cc(NC(=O)c6cccc(C(F)(F)F)n6)ccc5n4)C3)CC1)n(C)c(=O)n2C1CCC(=O)NC1=O (stereo partly drawn) [I-148] | 100 to 200 nM
12 | Cn1c(=O)n(C2CCC(=O)NC2=O)c2ccc(C3CCN(C[C@H]4CC[C@H](n5cc6cc(NC(=O)c7cccc(C(F)(F)F)n7)ncc6n5)CC4)CC3)c(Cl)c21 (stereo partly drawn) [I-178] | > 200 nM
13 | Cn1c(=O)n(C2CCC(=O)NC2=O)c2cccc(C3CCN(C[C@H]4C[C@@H](n5cc6cc(NC(=O)c7cccc(C(F)(F)F)n7)c(F)cc6n5)C4)CC3)c21 (stereo partly drawn) [I-18] | > 200 nM
14 | CN(CCCNc1cccc2c1C(=O)N(C1CCC(=O)NC1=O)C2=O)C[C@H]1CC[C@H](c2nc3cc(C(C)(C)O)c(NC(=O)c4cccc(C(F)(F)F)n4)cc3s2)CC1 (stereo partly drawn) [I-490] | > 200 nM
15 | Cc1cccc(C(=O)Nc2cc3sc([C@H]4CC[C@H](CN5C[C@H]6C[C@@H]5CN6CCCNc5cccc6c5C(=O)N(C5CCC(=O)NC5=O)C6=O)CC4)nc3cc2C(C)(C)O)n1 (stereo partly drawn) [I-432] | 100 to 200 nM
16 | Cn1c(=O)n(C2CCC(=O)NC2=O)c2cccc(C3CCN(C[C@H]4CC[C@H](n5cc6cc(NC(=O)c7cncc(C(F)(F)F)n7)c(F)cc6n5)CC4)CC3)c21 (stereo partly drawn) [I-45] | < 10 nM
17 | Cc1cccc(C(=O)Nc2cc3sc([C@H]4CC[C@H](CN5CCO[C@H](CCCNc6cccc7c6C(=O)N(C6CCC(=O)NC6=O)C7=O)C5)CC4)nc3cc2C(C)(C)O)n1 (stereo partly drawn) [I-477] | 100 to 200 nM

Row | SMILES | DC50
18 | COc1cc2nn([C@H]3CC[C@H](CN4CCC(c5cccc6c5n(C)c(=O)n6C5CCC(=O)NC5=O)CC4)CC3)cc2cc1NC(=O)c1cncc(Cl)c1 (stereo partly drawn) [I-196] | < 10 nM
19 | Cn1c(=O)n(C2CCC(=O)NC2=O)c2cccc(N3CCCN(C[C@H]4CC[C@H](n5cc6cc(NC(=O)c7cccc(C(F)(F)F)n7)ccc6n5)CC4)CC3)c21 (stereo partly drawn) [I-328] | 10 to 50 nM
20 | Cc1nc(C(=O)Nc2cc3cn([C@H]4CC[C@H](CN(C)C5CCN(c6cccc7c6n(C)c(=O)n7C6CCC(=O)N(C)C6=O)CC5)CC4)nc3cc2C(C)(C)O)co1 (stereo partly drawn) [I-61] | > 200 nM
21 | COc1cc2nn([C@H]3CC[C@H](CN4CCC(O[C@H]5C[C@@H](c6cccc7c6n(C)c(=O)n7C6CCC(=O)NC6=O)C5)CC4)CC3)cc2cc1NC(=O)c1cccc(C(F)(F)F)n1 (stereo partly drawn) [I-385] | 10 to 50 nM
22 | N#Cc1cc2nn([C@H]3CC[C@H](CN4CCC(c5cccc6c(N7CCC(=O)NC7=O)cncc56)CC4)CC3)cc2cc1NC(=O)c1cccc(C(F)(F)F)n1 [I-213] | < 10 nM
23 | COc1cc2nn([C@H]3CC[C@H](CN4CCN(c5cccc6c5n(C)c(=O)n6C5CCC(=O)NC5=O)C[C@H]4C)CC3)cc2cc1NC(=O)c1cccc(C(F)(F)F)n1 (stereo partly drawn) [I-243] | < 10 nM
24 | CC(C)(O)c1cc2nc([C@H]3CC[C@H](CN4CC5(CC(CCNc6cccc7c6C(=O)N(C6CCC(=O)NC6=O)C7=O)C5)C4)CC3)sc2cc1NC(=O)c1cncc(F)c1 (stereo partly drawn) [I-478] | 10 to 50 nM
25 | CN(CCCO[C@H]1C[C@H](Nc2cccc3c2C(=O)N(C2CCC(=O)NC2=O)C3=O)C1)C[C@H]1CC[C@H](n2cc3cc(NC(=O)c4cccc(C(F)(F)F)n4)ncc3n2)CC1 (stereo partly drawn) [I-353] | > 200 nM
26 | CC(C)(O)c1cc2nc([C@H]3CC[C@H](C(=O)N4CCC5(CC4)CC(CCNc4cccc6c4C(=O)N(C4CCC(=O)NC4=O)C6=O)C5)CC3)sc2cc1NC(=O)c1cccc(C(F)F)n1 (stereo partly drawn) [I-457] | 100 to 200 nM
27 | COc1cc2nn([C@H]3CC[C@H](CN4CCC(c5cccc6c5n(C)c(=O)n6C5CCC(=O)NC5=O)CC4)CC3)cc2cc1NC(=O)c1cnc(C#N)c(Cl)c1 (stereo partly drawn) [I-136] | > 200 nM
28 | CN(C(=O)[C@H]1CC[C@H](n2cc3cc(NC(=O)c4cccc(C(F)(F)F)n4)ccc3n2)CC1)C1CCN(c2cccc3c2n(C)c(=O)n3C2CCC(=O)NC2=O)CC1 (stereo partly drawn) [I-186] | < 10 nM
29 | O=C1CCN(c2cncc3cc(C4CCN(C[C@H]5CC[C@H](n6cc7cc(NC(=O)c8cccc(C(F)(F)F)n8)ccc7n6)CC5)CC4)ccc23)C(=O)N1 [I-321] | > 200 nM
30 | CSc1cc2nn([C@H]3CC[C@H](CN4CCN(c5cccc6c5n(C)c(=O)n6C5CCC(=O)NC5=O)CC4)CC3)cc2cc1NC(=O)c1cccc(C(F)(F)F)n1 (stereo partly drawn) [I-307] | < 10 nM
31 | COc1cc2nn([C@H]3C[C@H](CN4CCC(c5ccc6c(N7CCC(=O)NC7=O)cncc6c5)CC4)C3)cc2cc1NC(=O)c1cccc(C(F)(F)F)n1 [I-119] | > 200 nM
32 | Cn1c(=O)n(C2CCC(=O)NC2=O)c2cccc(C3CCN(C[C@H]4CC[C@H](N5Cc6cc(NC(=O)c7cccc(C(F)(F)F)n7)c(N7C[C@@H]8C[C@H]7CO8)cc6C5=O)CC4)CC3)c21 (stereo partly drawn) [I-27] | < 10 nM
33 | Cn1c(=O)n(C2CCC(=O)NC2=O)c2cccc(N3CCN(C[C@H]4CC[C@H](n5cc6cc(NC(=O)c7cccc(C(F)(F)F)n7)c(C(=O)O)cc6n5)CC4)CC3)c21 (stereo partly drawn) [I-415, 2-[4-[[4-[1-(2,6-dioxo-3-piperidyl)-3-methyl-2-oxo-benzimidazol-4-yl]piperazin-1-yl]methyl]cyclohexyl]-5-[[6-(trifluoromethyl)pyridine-2-carbonyl]amino]indazole-6-carboxylic acid] | 10 to 50 nM

Reference: US12150995B2, “IRAK degraders and uses thereof” (Kymera Therapeutics, Inc., priority 2020, dated 2024)
